Reference: patent US7943618B2, “Btk protein kinase inhibitors” (Roche Palo Alto LLC, priority 2007, dated 2011)

Experiments:
[1] = target: T1, Btk enzyme (His-tagged, full-length) (Homo sapiens, UniProt Q06187); assay: Bruton's Tyrosine Kinase (Btk) Inhibition Assay (33P filtration capture); type: biochemical; conditions: Bruton's tyrosine kinase Assay (Example 34), 100 μM ATP
T1 construct: 5-10 nM Btk enzyme (His-tagged, full-length); His

[2] = test system: Ramos cells; assay: Inhibition of B-cell Activation - B cell FLIPR assay in Ramos cells; type: cell-based; conditions: Homo sapiens, 0.5 h, intracellular calcium increase stimulated by 10 μg/mL anti-IgM, compounds incubated 30 min at RT
From the text: Inhibition of B-cell Activation—B cell FLIPR assay in Ramos cells
The B cell FLIPR assay is a cell based functional method of determining the effect of potential inhibitors of the intracellular calcium increase from stimulation by an anti-IgM antibody. Ramos cells (human Burkitt's lymphoma cell line. ATCC-No. CRL-1596) were cultivated in Growth Media (described below). One day prior to assay, Ramos cells were resuspended in fresh growth media (same as above) and set at a concentration of 0.5×10^6/mL in tissue culture flasks. On day of assay, cells are counted and set at a concentration of 1×10^6/mL1 in growth media supplemented with 1 μM FLUO-3AM(TefLabs Cat-No. 0116, prepared in anhydrous DMSO and 10% Pluronic acid) in a tissue culture flask, and incubated at 37° C. (4% CO2) for one h. To remove extracellular dye, cells were collected by centrifugation (5 min, 1000 rpm), resuspended in FLIPR buffer (described below) at 1×10^6 cells/mL and then dispensed into 96-well poly-D-lysine coated black/clear plates (BD Cat-No. 356692) at 1×10^5 cells per well. Test compounds were added at various concentrations ranging from 100 μM to 0.03 μM (7 concentrations, details below), and allowed to incubate with cells for 30 min at RT. Ramos cell Ca^2+ signaling was stimulated by the addition of 10 μg/mL anti-IgM (Southern Biotech, Cat-No. 2020-01) and measured on a FLIPR (Molecular Devices, captures images of 96 well plates using a CCD camera with an argon laser at 480nm excitation).
Growth Medium: RPMI 1640 medium with L-glutamine (Invitrogen, Cat-No. 61870-010), 10% Fetal Bovine Serum (FBS, Summit Biotechnology Cat-No. FP-100-05); 1 mM Sodium Pyruvate (Invitrogen Cat. No. 11360-070).
FLIPR buffer: HBSS (Invitrogen, Cat-No. 141175-079), 2 mM CaCl2 (Sigma Cat-No. C-4901), HEPES (Invitrogen, Cat-No. 15630-080), 2.5mM Probenecid (Sigma, Cat-No. P-8761), 0.1% BSA (Sigma, Cat-No. A-7906), 11 mM Glucose (Sigma, Cat-No. G-7528)
Compound dilution details:
In order to achieve the highest final assay concentration of 100 μM, 24 μL of 10 mM compound stock solution (made in DMSO) is added directly to 576 μL of FLIPR buffer. The test compounds are diluted in FLIPR Buffer (using Biomek 2000 robotic pipettor) resulting in the following dilution scheme: vehicle, 1.00×10^−4 M, 1.00×10^−5, 3.16×10^−6, 1.00×10^−6, 3.16×10^−7, 1.00×10^−7, 3.16×10^−8.
Intracellular increases in calcium were reported using a max-min statistic (subtracting the resting baseline from the peak caused by addition of the stimulatory antibody using a Molecular Devices FLIPR control and statistic exporting software. The IC50 was determined using a non-linear curve fit (GraphPad Prism software). Representative results are in Table III.

T1 sequence (Q06187 whole entry): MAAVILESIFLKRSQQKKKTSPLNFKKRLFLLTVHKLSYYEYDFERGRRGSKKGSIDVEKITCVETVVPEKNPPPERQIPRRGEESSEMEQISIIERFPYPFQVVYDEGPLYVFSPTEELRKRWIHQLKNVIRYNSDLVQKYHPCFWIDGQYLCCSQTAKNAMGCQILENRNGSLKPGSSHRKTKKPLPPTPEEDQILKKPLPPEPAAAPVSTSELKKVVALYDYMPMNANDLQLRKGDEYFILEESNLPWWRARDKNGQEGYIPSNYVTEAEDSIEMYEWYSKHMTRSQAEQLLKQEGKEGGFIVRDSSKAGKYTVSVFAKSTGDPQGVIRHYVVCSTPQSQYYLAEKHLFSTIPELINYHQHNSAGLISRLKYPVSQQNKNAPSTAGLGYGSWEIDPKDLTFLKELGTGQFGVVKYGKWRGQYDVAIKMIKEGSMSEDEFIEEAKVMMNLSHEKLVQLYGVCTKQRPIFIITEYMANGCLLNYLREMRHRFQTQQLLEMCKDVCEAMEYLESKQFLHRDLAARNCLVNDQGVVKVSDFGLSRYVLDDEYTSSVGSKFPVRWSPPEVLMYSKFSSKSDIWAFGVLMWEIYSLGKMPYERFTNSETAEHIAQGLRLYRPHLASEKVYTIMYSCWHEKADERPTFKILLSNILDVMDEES

| IC50 ([1]; Table I pyridazinones) | melting point | IC50 [2] | IC50 ([1]; Table II pyridinones) | Compound |
| --- | --- | --- | --- | --- |
| 116 nM | 188.5 to 191 °C | 205 nM | – | Cc1c(-c2cc(Nc3ccc(C(=O)N4CCOCC4)cn3)c(=O)n(C)n2)cccc1-n1cnc2cc(C(C)(C)C)ccc2c1=O [Compound I-8, 7-tert-Butyl-3-(2-methyl-3-{1-methyl-5-[5-(morpholine-4-carbonyl)-pyridin-2-ylamino]-6-oxo-1,6-dihydro-pyridazin-3-yl}-phenyl)-3H-quinazolin-4-one] |
| 104 nM | 262 to 264 °C | 415 nM | – | COc1nccc(Nc2cc(-c3cccc(NC(=O)c4ccc(C(C)(C)C)cc4)c3C)nn(C)c2=O)n1 [Compound I-17] |
| – | 291 to 292 °C | 552 nM | 96 nM | CNC(=O)Nc1cc(-c2cccc(NC(=O)c3ccc(N(C)C)cc3)c2C)cn(C)c1=O [II-13] |
| – | – | 4 nM | < 10 nM | CCNC(=O)Nc1cc(-c2cccc(NC(=O)c3ccc(C(C)(C)C)cc3)c2CO)cn(C)c1=O [II-56, 4-tert-Butyl-N-{3-[5-(3-ethyl-ureido)-1-methyl-6-oxo-1,6-dihydro-pyridin-3-yl]-2-hydroxymethyl-phenyl}-benzamide] |

| Compound | IC50 ([1]; Table I pyridazinones) | melting point | IC50 [2] | IC50 ([1]; Table II pyridinones) |
| --- | --- | --- | --- | --- |
| Cn1nc(-c2cccc(CC(=O)NCCOC(C)(C)C)c2)cc(Nc2ccc(C(=O)N3CCOCC3)cn2)c1=O [Compound I-32] | 820 nM | 220 to 221 °C | 32 nM | – |
